The test system of the assay is HCV replicon RNA (GenBank Accession No. AJ242654). Briefly: HCV Replicon Assay (replicon RNA reduction and/or Fluc reporter signal). The class given is cell-based, Hepatitis C virus. The following applies: Hepatitis C virus, 72 h, replicon-containing cells cultured with test compound for up to 3 days. From the text:
The lack of reliable and readily accessible cell-culture and small animal models permissive for HCV replication has limited the development of new anti-HCV agents. Self-replicating subgenomic HCV systems, termed HCV replicons, have been described and have been widely used to assess the efficacy of anti-HCV inhibitors (see Blight K J, et al., 2000, Efficient initiation of HCV RNA replication in cell culture. Science 290:1972-1974; Blight K J, et al., 2002, Highly permissive cell lines for subgenomic and genomic hepatitis C virus RNA replication. J Virol 76:13001-13014; Ikeda M, et al., 2002. Selectable subgenomic and genome-length dicistronic RNAs derived from an infectious molecular clone of the HCV-N strain of hepatitis C virus replicate efficiently in cultured Huh7 cells. J Virol 76:2997-3006; Lohmann V, et al., 1999, Replication of subgenomic hepatitis C virus RNAs in a hepatoma cell line. Science 285:110-113; Pietschmann T, et al., 2002, Persistent and transient replication of full-length hepatitis C virus genomes in cell culture. J Virol 76:4008-4021; and, Pietschmann T, et al., 2001, Characterization of cell lines carrying self-replicating hepatitis C virus RNAs. J Virol 75:1252-1264).
As described in U.S. Pat. No. 6,630,343, HCV inhibitors are analyzed in the bicistronic replicon by quantitating replicon RNA (GenBank Accession No. AJ242654) reduction and/or the Fluc reporter signal. Replicon-containing cells may be cultured with a test compound of the present invention for up to 3 days. Interferon (IFN) is used as a positive control. In general, the replicon IC50 values shown in Table 1 represent IC50 values determined by replicon RNA reduction.

By IC50 is commonly meant the concentration that inhibits the measured activity by half. Lower therefore signals inhibition by little substance.

Consider `CCc1cnc2c(c1)c(C#N)c(-c1ncc(S(=O)(=O)NC(CF)CF)cn1)n2C1CCC1` [Cpd 192, 2-(3-cyano-1-cyclobutyl-5-ethyl-1H-pyrrolo[2,3-b]pyridin-2-yl)-N-(1,3-difluoropropan-2-yl)pyrimidine-5-sulfonamide], for which the IC50 was less than 500 nM.

Regarding `CCc1cnc2c(c1)c(C#N)c(-c1ccc(S(=O)(=O)NC3CC3)cn1)n2C1CCC1` [Cpd 193, 6-(3-cyano-1-cyclobutyl-5-ethyl-1H-pyrrolo[2,3-b]pyridin-2-yl)-N-cyclopropylpyridine-3-sulfonamide], the half-inhibitory concentration (IC50) was less than 500 nM.

In turn, `C[C@H](NS(=O)(=O)c1ccc(-c2c(C#N)c3cc(OC(F)F)cnc3n2C2CCC2)nc1)C1CC1` [Cpd 200, 6-[3-cyano-1-cyclobutyl-5-(difluoromethoxy)-1H-pyrrolo[2,3-b]pyridin-2-yl]-N-[(1S)-1-cyclopropylethyl]pyridine-3-sulfonamide] yielded an IC50 of 500 to 2000 nM.

For the compound `Cc1ccc2c(n1)c(C#N)c(-c1ccc(S(=O)(=O)N[C@@H](C)C(F)(F)F)cn1)n2C1CCCC1` [Cpd 222, 6-(3-cyano-1-cyclopentyl-5-methyl-1H-pyrrolo[3,2-b]pyridin-2-yl)-N-[(2S)-1,1,1-trifluoropropan-2-yl]pyridine-3-sulfonamide], the IC50 was less than 500 nM.

The compound `N#Cc1c(-c2ccc(S(=O)(=O)NC3CC3)cn2)n(C2CCC2)c2ncc(C(F)(F)F)cc12` [Cpd 245, 6-[3-cyano-1-cyclobutyl-5-(trifluoromethyl)-1H-pyrrolo[2,3-b]pyridin-2-yl]-N-cyclopropylpyridine-3-sulfonamide] displayed an IC50 of less than 500 nM.

Take `N#Cc1c(-c2ccc(NS(=O)(=O)C3CC3)cc2)n(C2CCC2)c2ncc(C(F)(F)F)cc12` [Cpd 246, N-{4-[3-cyano-1-cyclobutyl-5-(trifluoromethyl)-1H-pyrrolo[2,3-b]pyridin-2-yl]phenyl}cyclopropanesulfonamide]: the IC50 was 500 to 2000 nM.

On to `CCc1cnc2c(c1)c(C#N)c(-c1ccc(S(=O)(=O)N[C@H](C)C(F)(F)F)cn1)n2C1CCCC1` [Cpd 251, 6-(3-cyano-1-cyclopentyl-5-ethyl-1H-pyrrolo[2,3-b]pyridin-2-yl)-N-[(2R)-1,1,1-trifluoropropan-2-yl]pyridine-3-sulfonamide], for which the 50% inhibitory concentration (IC50) is less than 500 nM.

In turn, `CCc1cnc2c(c1)c(C#N)c(-c1ccc(S(=O)(=O)N[C@@H](C)C(F)(F)F)cn1)n2C1CCCC1` [Cpd 252, 6-(3-cyano-1-cyclopentyl-5-ethyl-1H-pyrrolo[2,3-b]pyridin-2-yl)-N-[(2S)-1,1,1-trifluoropropan-2-yl]pyridine-3-sulfonamide] displayed an IC50 of less than 500 nM.

For the compound `CC1(NS(=O)(=O)c2ccc(-c3c(C#N)c4cc(C5CC5)cnc4n3C3CCCC3)nc2)CC1` [Cpd 253, 6-(3-cyano-1-cyclopentyl-5-cyclopropyl-1H-pyrrolo[2,3-b]pyridin-2-yl)-N-(1-methylcyclopropyl)pyridine-3-sulfonamide], the IC50 was in the range of 500 to 2000 nM.

Compound `Cc1cnc2c(c1)c(C#N)c(-c1ccc(S(=O)(=O)N[C@@H](C)C(F)(F)F)cn1)n2C1CCCC1` [Cpd 255, 6-(3-cyano-1-cyclopentyl-5-methyl-1H-pyrrolo[2,3-b]pyridin-2-yl)-N-[(2S)-1,1,1-trifluoropropan-2-yl]pyridine-3-sulfonamide] yielded an IC50 of less than 500 nM.

`COc1cnc2c(c1)c(C#N)c(-c1ccc(S(=O)(=O)NC3(C)CC3)cn1)n2C1CCCC1` [Cpd 269, 6-(3-cyano-1-cyclopentyl-5-methoxy-1H-pyrrolo[2,3-b]pyridin-2-yl)-N-(1-methylcyclopropyl)pyridine-3-sulfonamide] came in with a concentration for half-maximal inhibition (IC50) of less than 500 nM.

For `CC1(NS(=O)(=O)c2ccc(-c3c(C#N)c4cc(Cl)cnc4n3C3CCC3)nc2)CC1` [Cpd 280, 6-(5-chloro-3-cyano-1-cyclobutyl-1H-pyrrolo[2,3-b]pyridin-2-yl)-N-(1-methylcyclopropyl)pyridine-3-sulfonamide], the IC50 is less than 500 nM.

`N#Cc1c(-c2ccc(S(=O)(=O)NC3(C(F)(F)F)CC3)cc2)n(C2CCC2)c2ncc(Cl)cc12` [Cpd 281, 4-(5-chloro-3-cyano-1-cyclobutyl-1H-pyrrolo[2,3-b]pyridin-2-yl)-N-[1-(trifluoromethyl)cyclopropyl]benzenesulfonamide] returned an IC50 of less than 500 nM.

`CC(C)(NS(=O)(=O)c1ccc(-c2c(C#N)c3cc(Cl)cnc3n2C2CCC2)cc1)C(F)(F)F` [Cpd 282, 4-(5-chloro-3-cyano-1-cyclobutyl-1H-pyrrolo[2,3-b]pyridin-2-yl)-N-(1,1,1-trifluoro-2-methylpropan-2-yl)benzenesulfonamide]: the IC50 is less than 500 nM.

Turning to `CC1(NS(=O)(=O)c2ccc(-c3c(C#N)c4cc(Cl)cnc4n3C3CCC3)cc2)CC1` [Cpd 284, 4-(5-chloro-3-cyano-1-cyclobutyl-1H-pyrrolo[2,3-b]pyridin-2-yl)-N-(1-methylcyclopropyl)benzenesulfonamide], the IC50 was less than 500 nM.

Take `COc1cnc2c(c1)c(C#N)c(-c1ccc(S(=O)(=O)NC3(C(F)(F)F)CC3)cn1)n2C1CCC1` [Cpd 312, 6-(3-cyano-1-cyclobutyl-5-methoxy-1H-pyrrolo[2,3-b]pyridin-2-yl)-N-[1-(trifluoromethyl)cyclopropyl]pyridine-3-sulfonamide]: the IC50 was less than 500 nM.

`C[C@H](NS(=O)(=O)c1ccc(-c2cc3cc(C(F)(F)F)cnc3n2-c2ccccc2)nc1)C(F)(F)F` [Cpd 314, 6-[1-phenyl-5-(trifluoromethyl)-1H-pyrrolo[2,3-b]pyridin-2-yl]-N-[(2S)-1,1,1-trifluoropropan-2-yl]pyridine-3-sulfonamide] displayed an IC50 of 500 to 2000 nM.

With `C[C@H](NS(=O)(=O)c1ccc(-c2cc3cc(C(F)(F)F)cnc3n2-c2cnccn2)nc1)C(F)(F)F` [Cpd 315, 6-[1-(pyrazin-2-yl)-5-(trifluoromethyl)-1H-pyrrolo[2,3-b]pyridin-2-yl]-N-[(2S)-1,1,1-trifluoropropan-2-yl]pyridine-3-sulfonamide], the IC50 was less than 500 nM.

The compound `C[C@H](NS(=O)(=O)c1ccc(-c2c(C#N)c3cc(F)cnc3n2-c2ccccc2)nc1)C(F)(F)F` [Cpd 319, 6-(3-cyano-5-fluoro-1-phenyl-1H-pyrrolo[2,3-b]pyridin-2-yl)-N-[(2S)-1,1,1-trifluoropropan-2-yl]pyridine-3-sulfonamide] gave a 50% inhibitory concentration (IC50) of less than 500 nM.

Consider `CSc1cnc2c(c1)c(C(=O)O)c(-c1ccc(S(=O)(=O)NC3(C(F)(F)F)CC3)cn1)n2C1CCCC1` [Cpd 330, 1-cyclopentyl-5-(methylsulfanyl)-2-(5-{[1-(trifluoromethyl)cyclopropyl]sulfamoyl}pyridin-2-yl)-1H-pyrrolo[2,3-b]pyridine-3-carboxylic acid], for which the IC50 lay in the range of 2000 to 5000 nM.

`CC(C)(NS(=O)(=O)c1ccc(-c2c(C(=O)O)c3cc(Cl)cnc3n2C2CCC2)nc1)C(F)(F)F` [Cpd 331, 5-chloro-1-cyclobutyl-2-{5-[(1,1,1-trifluoro-2-methylpropan-2-yl)sulfamoyl]pyridin-2-yl}-1H-pyrrolo[2,3-b]pyridine-3-carboxylic acid] showed an IC50 of 500 to 2000 nM.

`Cc1cnc2c(c1)c(C(N)=O)c(-c1ccc(S(=O)(=O)NC3(C(F)(F)F)CC3)cc1)n2C1CCC1` [Cpd 342, 1-cyclobutyl-5-methyl-2-(4-{[1-(trifluoromethyl)cyclopropyl]sulfamoyl}phenyl)-1H-pyrrolo[2,3-b]pyridine-3-carboxamide] registered an IC50 of less than 500 nM.

As for `Cc1cnc2c(c1)c(C(N)=O)c(-c1ccc(S(=O)(=O)N[C@@H](C)C(F)(F)F)cc1)n2C1CCC1` [Cpd 343, 1-cyclobutyl-5-methyl-2-(4-{[(2S)-1,1,1-trifluoropropan-2-yl]sulfamoyl}phenyl)-1H-pyrrolo[2,3-b]pyridine-3-carboxamide], the IC50 was less than 500 nM.

On to `C[C@H](NS(=O)(=O)c1ccc(-c2c(C#N)c3cc(N(C)Cc4ccccc4)cnc3n2C2CCC2)nc1)C(F)(F)F` [Cpd 350, 6-{5-[benzyl(methyl)amino]-3-cyano-1-cyclobutyl-1H-pyrrolo[2,3-b]pyridin-2-yl}-N-[(2S)-1,1,1-trifluoropropan-2-yl]pyridine-3-sulfonamide], for which the IC50 is less than 500 nM.

`CN(Cc1ccccc1)c1cnc2c(c1)c(C#N)c(-c1ccc(NS(=O)(=O)C(C)(C)C)cc1)n2C1CCC1` [Cpd 352, N-(4-{5-[benzyl(methyl)amino]-3-cyano-1-cyclobutyl-1H-pyrrolo[2,3-b]pyridin-2-yl}phenyl)-2-methylpropane-2-sulfonamide] had an IC50 of 500 to 2000 nM.

Take `CN(Cc1ccccc1)c1cnc2c(c1)c(C#N)c(-c1ccc(S(=O)(=O)NC(C)(C)C(F)(F)F)cc1)n2C1CCC1` [Cpd 353, 4-{5-[benzyl(methyl)amino]-3-cyano-1-cyclobutyl-1H-pyrrolo[2,3-b]pyridin-2-yl}-N-(1,1,1-trifluoro-2-methylpropan-2-yl)benzenesulfonamide]: the IC50 fell in the range of 2000 to 5000 nM.

For the origin of these results see US9593108B2, “Compounds and methods for antiviral treatment” (PTC Therapeutics, Inc., priority 2009, dated 2017).
